Literature values in patent US20130303628A1, “CURCUMINOID SOLID DISPERSION FORMULATION” (ABBOTT LABORATORIES, priority 2010, published 2013).

Conditions: acidic and neutral pH

solubility in water: practically insoluble
SMILES: COc1cc(C=CC(=O)CC(=O)C=Cc2ccc(O)c(OC)c2)ccc1O [Curcumin, 1,7-Bis-(4-hydroxy-3-methoxyphenyl)-hepta-1,6-diene-3,5-dione]
